Data as given in patent US10570149B2, “Tricyclic heterocylic derivatives” (MERCK PATENT GMBH, priority 2016, dated 2020).
Like-named read-outs stand apart in the source and are kept apart here.

Columns and labels:
[1] = target: T1, ATR/ATRIP (Homo sapiens, UniProt Q13535); assay: ATR/ATRIP kinase assay (TR-FRET, p53 phosphorylation); format: biochemical
T1 construct: human ATR, full length, GenBank ID: NM_001184.3; p53: Sf21 insect cells
Experimental: ATR/ATRIP Kinase Assay—Measurement of ATR/ATRIP Inhibition
The IC50 value was determined by an ATR/ATRIP enzymatic assay. The assay comprises two steps: the enzymatic reaction and the detection step. First, a mixture of ATR/ATRIP protein (Ataxia Telangiectasia and Rad3-related protein/ATR interacting protein), the compound in question at different concentrations, p53 as substrate protein and adenosine triphosphate (ATP) are incubated in assay buffer. ATR phosphorylates p53 at Ser15 and other residues. The amount of phosphorylated p53 is then detected using specific antibodies and the TR-FRET assay technology.
In detail: The ATR/ATRIP enzymatic assay is performed as a TR-FRET-(HTRF™, Cisbio Bioassays) based 384-well assay. In a first step, purified human recombinant ATR/ATRIP (human ATR, full length, GenBank ID: NM_001184.3, and human ATRIP, full length, GenBank ID AF451323.1, co-expressed in a mammalian cell line) is incubated in assay buffer for 15 minutes at 22° C. with test compound at different concentrations or without test compound (as a negative control). The assay buffer contains 25 mM HEPES pH 8.0, 10 mM Mg(CH3COO)2, 1 mM MnCl2, 0.1% BSA, 0.01% Brij® 35, and 5 mM dithiothreitol (DTT). […] Then, in a second step, purified human recombinant cmyc-tagged p53 (human p53, full length, GenBank ID: BC003596, expressed in Sf21 insect cells) and ATP are added and the reaction mixture is incubated for 25-35 minutes, typically 25 minutes, at 22° C. The pharmacologically relevant assay volume is 5 μl. The final concentrations in the assay during incubation of the reaction mixture are 0.3-0.5 nM, typically 0.3 nM, ATR/ATRIP, 50 nM p53, and 0.5 μM ATP. The enzymatic reaction is stopped by the addition of EDTA. […] Following signal development for 2 h the plates are analyzed in an EnVision (PerkinElmer) microplate reader using the TRF mode with laser excitation. […] Data are processed employing the Genedata Screener software. In particular, IC50 values are determined in the usual manner by fitting a dose-response curve to the data points using nonlinear regression analysis.

[2] = tested on: phosphorylation of Chk1 (Ser 345) in HT29 colon adenocarcinoma cells; assay: pCHK1 cellular assay; format: cell-based; details: Homo sapiens, HT-29, Table 1, class symbols, hydroxyurea
Text: Chk1 kinase acts downstream of ATR and has a key role in DNA damage checkpoint control. Activation of Chk1 involves phosphorylation of Ser317 and Ser345 (regarded as the preferential target for phosphorylation/activation by ATR) and occurs in response to blocked DNA replication and certain forms of genotoxic stress. Phosphorylation at Ser 345 serves to localize Chk1 to the nucleus following checkpoint activation.
This assay measures a decrease in phosphorylation of Chk1 (Ser 345) in HT29 colon adenocarcinoma cells following treatment with compound and hydroxyurea (which promotes fork stalling because of dNTP depletion) and using an immunocytochemical procedure and high content imaging.
For the assay HT29 cells are plated in culture medium (DMEM high Glucose (no phenol red), 2 mM Glutamax, 1 mM Pyruvate, 10% FCS into Greiner 384 well plates, black, μclear #781090 (2500 cells/well/30 μl) and incubated for at least 20 hours at 37° C., 10% CO2 and 90% rH. Diluted test compounds (1 nM-30 μM final) and hydroxyurea (3 mM final) are added simultaneously and cells are incubated for 4 h at 37° C. After fixation/prmeabilisation with 100% MeOH (−20° C. cold) and permeabilisation with 0.2% Triton X-100 a complete immunocytochemical procedure is performed using a specific anti-pChk1 antibody (Cell Signaling, #2348BF) and fluorescently labelled secondary antibody (Alexa Fluor® 488 goat anti-rabbit F(ab′)2 fragment, Invitrogen A11070) and parallel nuclear staining for cell counting.
The nuclear localised pChk1 signal is detected on an ImageXpress Ultra confocal high content reader and reported as % positive cells (nuclei).

[3] = Table 1, class symbols, read-out: ATR-ATRIP IC50

T1 sequence (Q13535 whole entry): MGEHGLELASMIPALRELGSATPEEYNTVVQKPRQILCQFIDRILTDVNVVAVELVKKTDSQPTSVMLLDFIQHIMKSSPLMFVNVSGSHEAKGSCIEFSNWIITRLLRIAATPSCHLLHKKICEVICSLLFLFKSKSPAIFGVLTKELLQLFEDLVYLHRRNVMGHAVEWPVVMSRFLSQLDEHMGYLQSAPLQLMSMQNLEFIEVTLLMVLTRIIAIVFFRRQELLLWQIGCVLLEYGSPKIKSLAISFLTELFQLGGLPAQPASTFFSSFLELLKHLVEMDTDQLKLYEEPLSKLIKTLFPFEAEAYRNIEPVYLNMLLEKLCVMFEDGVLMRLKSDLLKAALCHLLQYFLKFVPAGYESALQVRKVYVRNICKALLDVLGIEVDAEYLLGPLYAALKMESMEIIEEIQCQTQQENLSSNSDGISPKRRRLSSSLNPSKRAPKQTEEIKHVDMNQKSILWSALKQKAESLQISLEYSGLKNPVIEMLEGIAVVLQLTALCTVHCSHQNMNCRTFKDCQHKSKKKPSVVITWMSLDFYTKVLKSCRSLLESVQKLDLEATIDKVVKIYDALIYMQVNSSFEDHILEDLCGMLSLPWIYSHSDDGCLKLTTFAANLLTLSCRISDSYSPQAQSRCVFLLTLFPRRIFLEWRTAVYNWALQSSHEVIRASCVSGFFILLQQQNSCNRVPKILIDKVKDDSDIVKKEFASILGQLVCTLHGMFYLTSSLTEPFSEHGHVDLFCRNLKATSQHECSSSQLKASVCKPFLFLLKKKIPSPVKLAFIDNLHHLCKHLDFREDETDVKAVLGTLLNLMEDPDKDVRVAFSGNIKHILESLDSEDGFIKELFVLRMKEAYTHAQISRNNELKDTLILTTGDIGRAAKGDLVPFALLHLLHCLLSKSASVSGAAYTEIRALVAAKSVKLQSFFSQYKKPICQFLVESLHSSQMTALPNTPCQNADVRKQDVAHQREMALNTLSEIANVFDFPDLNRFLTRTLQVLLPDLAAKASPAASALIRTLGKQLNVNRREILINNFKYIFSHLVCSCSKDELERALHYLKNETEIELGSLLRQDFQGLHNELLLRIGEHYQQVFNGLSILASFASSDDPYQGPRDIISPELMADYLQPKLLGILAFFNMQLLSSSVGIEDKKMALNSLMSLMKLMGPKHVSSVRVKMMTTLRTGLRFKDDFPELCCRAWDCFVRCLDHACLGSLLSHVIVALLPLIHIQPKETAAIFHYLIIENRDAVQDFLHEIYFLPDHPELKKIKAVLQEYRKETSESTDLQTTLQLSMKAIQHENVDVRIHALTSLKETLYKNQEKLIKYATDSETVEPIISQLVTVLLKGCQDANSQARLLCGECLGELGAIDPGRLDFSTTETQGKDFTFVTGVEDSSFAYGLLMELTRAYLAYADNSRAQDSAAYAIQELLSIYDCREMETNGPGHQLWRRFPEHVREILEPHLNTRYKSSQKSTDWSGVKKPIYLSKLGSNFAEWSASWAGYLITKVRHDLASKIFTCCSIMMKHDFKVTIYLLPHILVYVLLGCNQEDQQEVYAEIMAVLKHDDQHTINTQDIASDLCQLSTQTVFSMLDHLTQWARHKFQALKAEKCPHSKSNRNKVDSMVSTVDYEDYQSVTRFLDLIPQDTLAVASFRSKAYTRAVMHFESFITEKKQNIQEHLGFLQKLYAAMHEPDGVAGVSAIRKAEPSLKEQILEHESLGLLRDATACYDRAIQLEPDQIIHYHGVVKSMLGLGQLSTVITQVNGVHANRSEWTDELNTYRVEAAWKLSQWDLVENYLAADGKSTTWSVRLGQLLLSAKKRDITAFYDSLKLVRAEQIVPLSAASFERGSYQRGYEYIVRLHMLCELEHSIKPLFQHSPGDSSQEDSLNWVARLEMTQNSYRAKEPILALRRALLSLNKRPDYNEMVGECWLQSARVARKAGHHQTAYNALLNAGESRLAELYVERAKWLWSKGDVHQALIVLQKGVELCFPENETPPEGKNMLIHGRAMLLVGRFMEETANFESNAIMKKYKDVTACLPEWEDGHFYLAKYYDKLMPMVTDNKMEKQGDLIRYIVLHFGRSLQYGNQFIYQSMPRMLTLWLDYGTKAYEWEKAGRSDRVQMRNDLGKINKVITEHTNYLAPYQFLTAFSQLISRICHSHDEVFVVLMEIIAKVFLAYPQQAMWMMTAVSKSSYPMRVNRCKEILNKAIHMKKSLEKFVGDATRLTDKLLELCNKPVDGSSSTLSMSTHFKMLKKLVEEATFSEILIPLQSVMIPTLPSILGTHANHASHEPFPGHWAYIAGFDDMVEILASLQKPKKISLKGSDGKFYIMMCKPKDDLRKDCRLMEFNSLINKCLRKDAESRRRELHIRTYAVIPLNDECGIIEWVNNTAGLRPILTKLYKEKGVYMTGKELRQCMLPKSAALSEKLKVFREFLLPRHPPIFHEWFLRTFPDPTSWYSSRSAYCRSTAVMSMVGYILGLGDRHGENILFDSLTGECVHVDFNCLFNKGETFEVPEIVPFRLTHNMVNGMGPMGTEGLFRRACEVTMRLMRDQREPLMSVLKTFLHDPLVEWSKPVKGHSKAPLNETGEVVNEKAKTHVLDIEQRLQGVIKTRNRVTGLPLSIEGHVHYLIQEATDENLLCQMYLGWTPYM
T1 sequence (Q8WXE1 whole entry partner): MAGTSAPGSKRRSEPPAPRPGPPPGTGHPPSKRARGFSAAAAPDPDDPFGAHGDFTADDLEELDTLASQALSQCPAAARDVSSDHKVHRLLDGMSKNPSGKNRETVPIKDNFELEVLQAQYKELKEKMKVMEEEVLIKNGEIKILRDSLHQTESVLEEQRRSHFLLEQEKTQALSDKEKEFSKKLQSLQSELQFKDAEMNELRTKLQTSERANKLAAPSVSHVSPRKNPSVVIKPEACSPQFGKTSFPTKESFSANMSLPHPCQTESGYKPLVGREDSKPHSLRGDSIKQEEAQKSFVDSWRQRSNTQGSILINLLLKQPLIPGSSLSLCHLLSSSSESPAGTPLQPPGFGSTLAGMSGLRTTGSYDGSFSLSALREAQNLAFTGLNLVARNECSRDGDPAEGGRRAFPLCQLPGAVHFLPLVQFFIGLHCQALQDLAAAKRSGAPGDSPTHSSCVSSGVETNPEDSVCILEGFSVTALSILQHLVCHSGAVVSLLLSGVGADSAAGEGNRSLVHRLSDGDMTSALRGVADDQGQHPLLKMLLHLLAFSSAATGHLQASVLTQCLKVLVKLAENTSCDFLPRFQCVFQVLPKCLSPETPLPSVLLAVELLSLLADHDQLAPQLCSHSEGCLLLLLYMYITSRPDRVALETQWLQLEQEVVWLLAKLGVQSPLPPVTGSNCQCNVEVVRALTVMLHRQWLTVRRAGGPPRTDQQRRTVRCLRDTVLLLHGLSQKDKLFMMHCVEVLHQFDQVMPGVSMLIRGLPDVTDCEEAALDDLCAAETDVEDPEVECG

Row | Structure (SMILES) | IC50 [1, 3] | IC50 [2] | IC50 [1]
1 | C[C@@H]1COC[C@H]2COc3c(nc(-c4cccc(C5(N)COC5)c4)nc3C(C)(C)S(C)(=O)=O)N21 [A64, 3-{3-[(5R,8aS)-1-(1-methanesulfonyl-1-methyl-ethyl)-5-methyl-5,6,8a,9-tetrahydro-8H-7,10-dioxa-2,4,4b-triaza-phenanthren-3-yl]-phenyl}-oxetan-3-ylamine] | 500 to 30000 nM | 1000 to 30000 nM | –
2 | CCNc1cnc2[nH]ccc2c1-c1nc2c(c(C(C)(C)S(C)(=O)=O)n1)OC[C@@H]1COC[C@@H](C)N21 [A90, ethyl-{4-[(S)-1-(1-methanesulfonyl-1-methyl-ethyl)-5-(R)-methyl-5,6,8a,9-tetrahydro-8H-7,10-dioxa-2,4,4b-triaza-phenanthren-3-yl]-1H-pyrrolo[2,3-b]pyridin-5-yl}-amine] | 1 to 10 nM | 10 to 100 nM | –
3 | C[C@@H]1COC[C@H]2COc3c(nc(Nc4ccn[nH]4)nc3C(C)(C)S(C)(=O)=O)N21 [A73, [(5R,8aS)-1-(1-methanesulfonyl-1-methyl-ethyl)-5-methyl-5,6,8a,9-tetrahydro-8H-7,10-dioxa-2,4,4b-triaza-phenanthren-3-yl]-(2H-pyrazol-3-yl)-amine] | < 1 nM | 10 to 100 nM | –
4 | C[C@@H]1COC[C@H]2COc3c(nc(-c4ccc5nc(N)ccc5c4)nc3C(C)(C)S(C)(=O)=O)N21 [A72, 6-[(5R,8aS)-1-(1-methanesulfonyl-1-methyl-ethyl)-5-methyl-5,6,8a,9-tetrahydro-8H-7,10-dioxa-2,4,4b-triaza-phenanthren-3-yl]-quinolin-2-ylamine] | < 1 nM | 100 to 1000 nM | –
5 | C[C@@H]1COC[C@H]2COc3c(nc(Nc4cn[nH]n4)nc3C(C)(C)S(C)(=O)=O)N21 [A69, [(5R,8aS)-1-(1-methanesulfonyl-1-methyl-ethyl)-5-methyl-5,6,8a,9-tetrahydro-8H-7,10-dioxa-2,4,4b-triaza-phenanthren-3-yl]-(2H[1,2,3]triazol-4-yl)-amine] | 10 to 100 nM | 100 to 1000 nM | –
6 | CNc1nc2ccccc2n1-c1nc2c(c(C(C)(C)S(C)(=O)=O)n1)OC[C@H]1COC[C@@H](C)N21 [A8, {1-[(5R,8aR)-1-(1-Methanesulfonyl-1-methyl-ethyl)-5-methyl-5,6,8a,9-tetrahydro-8H-7,10-dioxa-2,4,4b-triaza-phenanthren-3-yl]-1H-benzimidazol-2-yl}-methyl-amine] | 1 to 10 nM | 100 to 1000 nM | –
7 | C[C@@H]1COC[C@H]2COc3c(nc(-c4c(O)cnc5[nH]ccc45)nc3C3(S(C)(=O)=O)CC3)N21 [A91, 4-[(5R,8aS)-1-(1-methanesulfonyl-cyclopropyl)-5-methyl-5,6,8a,9-tetrahydro-8H-7,10-dioxa-2,4,4b-triaza-phenanthren-3-yl]-1H-pyrrolo[2,3-b]pyridin-5-ol] | < 1 nM | 100 to 1000 nM | –
8 | C[C@@H]1COC[C@H]2COc3c(nc(-c4ccc5nc(N)ncc5c4)nc3C(C)(C)S(C)(=O)=O)N21 [A78, 6-[(5R,8aS)-1-(1-methanesulfonyl-1-methyl-ethyl)-5-methyl-5,6,8a,9-tetrahydro-8H-7,10-dioxa-2,4,4b-triaza-phenanthren-3-yl]-quinazolin-2-ylamine] | 10 to 100 nM | 100 to 1000 nM | –
9 | C[C@@H]1COC[C@H]2COc3c(nc(-c4ccc(C5(CO)CN5)cc4)nc3C(C)(C)S(C)(=O)=O)N21 (stereo partly drawn) [A61, (2-{4-[(5R,8aS)-1-(1-methanesulfonyl-1-methyl-ethyl)-5-methyl-5,6,8a,9-tetrahydro-8H-7,10-dioxa-2,4,4b-triaza-phenanthren-3-yl]-phenyl}-aziridin-2-yl)-methanol] | – | 1000 to 30000 nM | 500 to 30000 nM
10 | C[C@@H]1COC[C@H]2COc3c(nc(-c4cccc(C5(CO)CN5)c4)nc3C(C)(C)S(C)(=O)=O)N21 (stereo partly drawn) [A63, (2-{3-[(5R,8aS)-1-(1-methanesulfonyl-1-methyl-ethyl)-5-methyl-5,6,8a,9-tetrahydro-8H-7,10-dioxa-2,4,4b-triaza-phenanthren-3-yl]-phenyl}-aziridin-2-yl)-methanol] | – | 1000 to 30000 nM | 500 to 30000 nM
11 | C[C@@H]1COC[C@H]2COc3c(nc(-c4cncc5[nH]ccc45)nc3C(C)(C)S(C)(=O)=O)N21 [A39, (5R,8aS)-1-(1-methanesulfonyl-1-methyl-ethyl)-5-methyl-3-(1H-pyrrolo[2,3-c]pyridin-4-yl)-5,6,8a,9-tetrahydro-8H-7,10-dioxa-2,4,4b-triaza-phenanthrene] | < 1 nM | 10 to 100 nM | –
12 | C[C@@H]1COC[C@H]2COc3c(nc(-n4c(NC5COC5)nc5ccccc54)nc3C(C)(C)S(C)(=O)=O)N21 [A93, {1-[(5R,8aS)-1-(1-methanesulfonyl-1-methyl-ethyl)-5-methyl-5,6,8a,9-tetrahydro-8H-7,10-dioxa-2,4,4b-triaza-phenanthren-3-yl]-1H-benzoimidazol-2-yl}-oxetan-3-yl-amine] | 1 to 10 nM | 10 to 100 nM | –
13 | C[C@@H]1COC[C@H]2COc3c(nc(-c4c(F)ncc5[nH]ccc45)nc3C(C)(C)S(C)(=O)=O)N21 [A29, (5R,8aS)-3-(5-Fluoro-1H-pyrrolo[2,3-c]pyridin-4-yl)-1-(1-methanesulfonyl-1-methyl-ethyl)-5-methyl-5,6,8a,9-tetrahydro-8H-7,10-dioxa-2,4,4b-triaza-phenanthrene] | < 1 nM | 10 to 100 nM | –
14 | CC(C)Nc1cnc2[nH]ccc2c1-c1nc2c(c(C(C)(C)S(C)(=O)=O)n1)OC[C@@H]1COC[C@@H](C)N21 [A81, isopropyl-{4-[(S)-1-(1-methanesulfonyl-1-methyl-ethyl)-5-(R)methyl-5,6,8a,9-tetrahydro-8H-7,10-dioxa-2,4,4b-triaza-phenanthren-3-yl]-1H-pyrrolo[2,3-b]pyridin-5-yl}-amine] | 1 to 10 nM | 100 to 1000 nM | –
15 | C[C@@H]1COC[C@H]2COc3c(nc(-c4ccc(CN)cc4)nc3C(C)(C)S(C)(=O)=O)N21 [A46, 4-[(5R,8aS)-1-(1-methanesulfonyl-1-methyl-ethyl)-5-methyl-5,6,8a,9-tetrahydro-8H-7,10-dioxa-2,4,4b-triaza-phenanthren-3-yl]-benzylamine] | < 1 nM | 10 to 100 nM | –
16 | C[C@@H]1COC[C@H]2COc3c(nc(N(C)c4ccn[nH]4)nc3C(C)(C)S(C)(=O)=O)N21 [A74, [(5R,8aS)-1-(1-methanesulfonyl-1-methylethyl)-5-methyl-5,6,8a,9-tetrahydro-8H-7,10-dioxa-2,4,4b-triaza-phenanthren-3-yl]-methyl-(2H-pyrazol-3-yl)-amine] | 10 to 100 nM | 10 to 100 nM | –
17 | CC(=O)Nc1nc2ccccc2n1-c1nc2c(c(C(C)(C)S(C)(=O)=O)n1)OC[C@@H]1COC[C@@H](C)N21 [A34, N-{1-[(10S,14R)-6-(2-Methanesulfonylpropan-2-yl)-14-methyl-8,12-dioxa-1,3,5-triazatricyclo[8.4.0.0^2,7]tetradeca-2,4,6-trien-4-yl]-1H-1,3-benzodiazol-2-yl}acetamide] | < 1 nM | 10 to 100 nM | –
18 | C[C@@H]1COC[C@H]2COc3c(nc(-c4cc5cc(F)ncc5[nH]4)nc3C(C)(C)S(C)(=O)=O)N21 [A67, (5R,8aS)-3-(5-fluoro-1H-pyrrolo[2,3-c]pyridin-2-yl)-1-(1-methanesulfonyl-1-methyl-ethyl)-5-methyl-5,6,8a,9-tetrahydro-8H-7,10-dioxa-2,4,4b-triaza-phenanthrene] | 10 to 100 nM | 1000 to 30000 nM | –
